Experiments:
Assay type in all cases: cell-based, human
[1] = system: CD133+ cells; test: RT-PCR of HOX-PBX target genes in CD133+ cells
Method: (§1) Total RNA was isolated from liquid nitrogen snap-frozen cells using RNeasy Mini Kit protocol (Qiagen, Crawley, UK). 50 μl reverse transcription reactions using 1 μg of RNA per reaction heated at 75° C. cDNA with 1 μg of oligo-dT for 10 mins. Samples were cooled on ice and mixed with 200 units of M-MLV reverse transcriptase (Promega, Southampton, UK) in its associated buffer, 400 μM of dNTPs (Promega), and 40 units of RNAseout (Invitrogen, Paisley, UK). Samples were then incubated at 37° C. for one hour and finally heated at 75° C. for 5 mins. PCR reactions (35 cycles, 94° C. 30 sec, 55° C. 30 sec, 72° C. 1 min) were carried out in a 20 μl reaction using JumpStart ReadyMix REDTaq DNA polymerase (Sigma-Aldrich) using an identical amount of cDNA per reaction with 1 μM of forward and reverse primers.

[2] = system: CD133+ cells; test: Cell cycle status of CD133+ cells (G0-G1)
Method: Cells to be investigated were harvested and washed in PBS at 400 g for 10 min. Pelleted cells were then fixed in ice-cold 70% ethanol. Fixed cells were subsequently washed twice in PBS (600 g; 10 min) and incubated in 100 μl of ribonuclease (100 μg/ml; Sigma Aldrich) for 5 min (room temperature) prior to addition of 400 μl of propidium iodide (50 μg/ml; Sigma Aldrich) and 30 minutes incubation (37° C.). Cells were then analysed for cell cycle status on FACScan flow cytometer (Becton Dickinson, USA) and using WinMDI and Cylchred softwares.
CD133+ cells (another name for AC133+ cells) were seeded in duplicate at 4×10^4 cells/ml in IMDM (Life Technologies), 10% FCS (Sigma Aldrich) and gentamycin (50 μg/ml Life Technologies) and Thrombopoietin (TPO) 10 ng/ml, Flt3-Ligand (FL) 50 ng/ml & c-KitL (K) 20 ng/ml), all obtained from R and D systems Ltd., UK. (Forraz et al., 2002). The HXP peptide (N-term: WYPWMKKHHRQIKIWFQNRRMKWKK: C-term; Eurogentec, Belgium) and control CXP peptide (N-term: WCCLADRHGRQIKIWFQNRRMKWKK: C-term; Eurogentec, Belgium) were added to culture medium at a concentration of 20 μg/ml. To withdraw peptides from culture, cells were washed twice in IMDM or RPMI and reseeded at prewash cell densities. Primary cells were cultured for 3 weeks at 37° C., 5% CO2 in humidified atmosphere and enumerated by a […] exclusion method with a heamocytometer.

[3] = system: KG1a, HL60 and U937 leukaemic cell lines; test: RT-PCR of HOX/PBX target genes in leukaemic cell lines (Example 3)
Method: as §1

[4] = system: malignant cell lines; test: Proliferation of malignant cell lines over seven days in culture; parameters: effect of increased dose on proliferation of malignant cell lines: dose or concentration left out as unconfirmed
Method: A number of cell lines representing different malignancies were grown in culture for seven days, and HXP peptide or the control peptide CXP were added to a final concentration of 20 μg/ml on day 3. The bars represent the fold increase of each cell line over the seven days; the empty, dashed bars indicate the CXP peptide treated cells, whilst the solid bars indicate the addition of HXP peptide. Error bars represent the standard error the mean, and n is the number of experiments performed. The cell lines used were: AML—KG1a; Bladder—HT; Breast—SKBR3; Cervical—HeLa; Colon—Colo41; Gastric—MKN-45; Large cell lung cancer—MES; Melanoma—DX3; Ovarian—1847; Pancreatic—Panc-Tu1; Prostate—LNCAP; Renal—HT1376; Small cell lung cancer—NCI-h510A. The change in the expression of the HOX genes expressed by each cell line was assessed by RT-PCR on RNA extracted from the cells at the end of seven days. ‘HOX gene inactivated’ means that the level of expression of each of the listed HOX genes was at least five fold lower in the HXP peptide treated cells compared to the control. *Analysis not yet complete.
A number of cell lines representing different malignancies were grown in culture for seven days, and HXP peptide or the control peptide CXP were added to a final concentration of 200 μg/ml on day 3. The bars represent the fold increase of each cell line over the seven days; the empty, dashed bars indicate the CXP peptide treated cells, whilst the solid bars indicate the addition of HXP peptide. Error bars represent the standard error the mean, and n is the number of experiments performed. The cell lines used were: Bladder—HT; Cervical—HeLa; Melenoma—DX3; Pancreatic—Panc-Tu1.
Solid tumour cell lines (Cancer Research UK) were seeded at 4×10^4 cells/ml, in a liquid culture system made of appropriate medium (see table, Sigma-Aldrich, UK) supplemented with 10% FCS (Sigma Aldrich) and penstrep (1% Sigma). All cell lines were grown with HXP peptide (as in Example 3, 20 μg/ml or 200 μg/ml) or control peptide CXP (20 μg/ml or 200 μg/ml).
KG1a, KG1, HL60 and U937 cell lines (EACC, UK) were seeded at 5×10^4 cells/ml, in a liquid culture system made of RPMI-1640 medium (Life Technologies, UK) supplemented with 10% FCS (Sigma Aldrich) and gentamicin (50 μg/ml Life Technologies) in triplicates. All cell lines were grown with HXP peptide peptide (20 μg/ml) or control peptide (20 μg/ml).
Cell lines were cultured for various time points at 37° C., 5% CO2 in humidified atmosphere and enumerated at various time points.

[5] = 20 μg/ml added on day 3, seven days culture

## WYPWMKKHHRQIKIWFQNRRMKWKK [HXP peptide]
[1]; 18 days
  CD38 gene expression: up-regulated
  expression of HOX-PBX target genes (CDC25, CDK2, N-Ras, Ras-like GTP binding protein, MMP19, MMP1, MAPK, RAB27A, Bak2, p53, CTCF, EIF4E, CD133, CD34, TERT, HOX B4, B8 and A9): significantly down regulated
[1]; withdrawal at day 7
  expression of HOX-PBX target genes after withdrawing HXP peptide: up-regulation of all of these genes with the exception of MAPK
[2]; compared to the HXP peptide-treated group
  proportion of cells in phase G0-G1 upon withdrawing HXP peptide: lower proportion of cells remained in phase G0-G1
[2]; day 18 of culture, vs CXP4 treated cells, p<0.05
  more cells in phase G0-G1 of the cell cycle than the control group: 9.9%
[3]; KG1a
  MMP19 expression: down-regulated
[3]; KG1a and U937 cells
  MMP1 expression: down-regulated
[3]; KG1a cell line
  CD38 gene expression: up-regulation
  CD133, CD34, HOXB4, B8 and A9 gene expression: down-regulation
[3]; KG1a, HL60, U937, except CDC25, MMP1, MMP19 as stated
  expression of the other genes examined: did not alter
[3]; U937 and HL60 cell lines
  CD38 gene expression: up-regulated
  HOXB4 and A9 gene expression: down-regulation
  HOXB8 gene expression: unchanged
[3]; U937 cells
  CDC25 expression: down-regulated
[3]; all of the cell lines (KG1a, HL60, U937)
  N-RAS oncogene expression: completely down-regulated
[4]; 20 μg/ml
  fold increase in cell number after 7 days in culture, in some cases: less than 1
[4]; [5]
  proliferation of cells derived from colorectal, pancreatic, small cell lung, bladder, prostate, cervical, ovarian and gastric cancers: sufficient to block the proliferation
  proliferation of cells derived from renal, breast and non-small cell lung cancer: no significant affect
[4]; ten fold increase in dose
  effect of increased dose on proliferation of malignant cell lines: complete ablation of some malignancies

— patent US7728105B2, “Peptides impairing PBX dependent gene regulation” (St. George's Hospital Medical School, priority 2002, dated 2010)
